For assay [1], the target named is D-amino acid oxidase (DAAO) (UniProt P14920).
Procedure: The activity of DAAO was determined in vitro by measuring the inhibition of the catabolism of known substrate, D-proline. The cofactor FAD (40 ? M) was added to the DAAO stock solution first. For the assay, potential inhibitors of tannic acid(s) were mixed with reaction mixture containing phosphate buffered saline (137 mM NaCl, 3 mM KCl, 10 mM Na2HPO4, 2 mM NaH2PO4, pH 7.4), horseradish peroxidase (5 U/ml), o-phenylendiamine (OPD, 0.03%), and 0.6 μg human-(or porcine-) DAAO, and incubated for about 5 min. After the pre-incubation period, 40 mM D-proline were added as substrate and the reaction continued for 10 min. OPD was oxidized to form 2,3-diaminophenazine (DAP) by horseradish peroxidase. The absorbance of DAP was measured at 453 nm by a spectrophotometry. Assay was done in serial dilutions of the inhibitors to generate IC50 and analyzed by Prism (Graphpad Software). In the analysis, the spectrophotometry readings were fit to a standard equation to determine the concentration of 50% inhibition (IC50). All enzymatic assays were conducted at room temperature in 96-well plate format.
The DAAO inhibitory activities of subgroups of tannic acids (having a particular number of galloyl moieties) were determined as follows.
The test system of assay [2] is MK-801 treated mice. Put plainly: Prepulse inhibition in MK-801 treated mice (Example 9). It counts as in vivo, C57BL/6J male mice. The conditions noted are these: MK-801 0.3 mg/kg i.p. alone. On the procedure: Each mouse in Groups 2-4 received an acute administration of 0.3 mg/kg MK-801 (Sigma-Aldrich, USA) dissolved in normal saline by i.p. injection 20 minutes prior to the prepulse inhibitin test. Each mouse in Groups 3-4 received an acute oral administration of 50 or 200 mg/kg Enrichment #10 tannic acids dissolved in ddH2O by p.o. 20 minutes prior to the MK-801 administration.
Prepulse inhibition was used as an index of sensorimotor gating function using SR-LAB startle apparatus (San Diego Instruments, San Diego, Calif., USA). Under 65 dB background noise, each session was composed of 5 minutes accumulation period followed by 64 trials in four blocks. The pulse alone (PA) trial was a 40 ms, 120 dB white noise burst. In the prepulse (pp)+pulse trials, a 20 ms white noise prepulse stimuli of 71 dB (pp6), 75 dB (pp10), and 83 dB (pp18) were presented 100 ms before a 40 ms 120 dB pulse. The non-stimulus (NS) trials presented the background noise only. The initial and the last blocks were composed of six PA trials, respectively. Two middle blocks consisted of PA, pp+pulse, and NS trials. […] The percentage of prepulse inhibition was evaluated by the following formula: % PPI=100×[(PA score)−(pp−P score)]/(PA score), where the PA score was the average of the PA value in the middle blocks

Assay [3] deals with MK-801 treated mice. Put plainly: Open field locomotion in MK-801 treated mice (Examples 3, 4). To be noted: MK-801 0.1 mg/kg i.p. alone. The class given is in vivo, C57BL/6J male mice. On the procedure: (§1) Each mouse in Groups 2-6 received an acute administration of MK-801 (Sigma-Aldrich, USA) dissolved in normal saline, 0.1 mg/kg, i.p.) 20 minutes prior to the behavioral tests. Each mouse in Groups 3-6 received an acute administration of tannic acids (Sigma-Aldrich, USA; dissolved in PBS, 10, 15, 20 or 30 mg/kg, i.p.) 20 minutes prior to the MK-801 administration.
All mice in this study were tested with open field task and prepulse inhibition task with at least 1-week interval between two tasks. An additional cohort of mice was used to test the effect of different sources of tannic acid on prepulse inhibition.
(§2) Each mouse in Groups 2-5 received an acute administration of MK-801 (Sigma-Aldrich, USA) dissolved in normal saline, 0.1 mg/kg for open field and Barnes maze tasks, and 0.2 mg/kg for prepulse inhibition and sucrose preference tasks by i.p. injection) 20 minutes prior to the behavioral tests. Each mouse in Groups 3-6 received an acute oral administration of tannic acids (Merck Millipore, Germany; dissolved in PBS, 10, 30, or 100 mg/kg, p.o.) 20 minutes prior to the MK-801 administration.
In this test, tannic acids were administered orally 20 minutes before the MK-801 (0.1 mg/kg) injection.

Assay [4] concerns MK-801 treated mice. Put plainly: Sucrose preference (anhedonia) in MK-801 treated mice. To be noted: MK-801 0.2 mg/kg i.p. alone. The class given is in vivo, C57BL/6J male mice. On the procedure:
as §2
Sucrose preference test has been commonly examined in mouse models of several mental illnesses, including, but not limited to, depression, major depression disorder, anhedonia, negative symptoms of schizophrenia, chronic mild and unpredictable stress (see Anderson et al., 2006; Carvalho et al., 2013; Briones et al., 2011; Der-Avakian and Markou, 2012; Tye et al., 2013; Edwards and Koob, 2012; Brigman et al., 2010; Koo and Duman, 2007; Nestler and Hyman, 2010; Overstreet, 2012; Papp et al., 1991; Santiago et al., 2010; Skalisz et al., 2002; Szczypka et al., 2001; Taylor et al., 2010; Vardigan et al., 2010; Willner et al., 1987; You et al., 2011).

Assay [5] has as its system MK-801 treated mice. In words: Open field locomotion in MK-801 treated mice (Example 9). It counts as in vivo, C57BL/6J male mice. To be noted: MK-801 0.2 mg/kg i.p. alone. The protocol:
Each mouse in Groups 2-5 received an acute administration of 0.2 mg/kg MK-801 (Sigma-Aldrich, USA) dissolved in normal saline by i.p. injection 20 minutes prior to the locomotion activity test. Each mouse in Groups 3-6 received an acute oral administration of 50 mg/kg tannic acids dissolved in ddH2O by p.o. 20 minutes prior to the MK-801 administration. Tannic acid purchased from Merch Millipore (Merck TA) and from Wufeng Chicheng Biotech (CCBiotech TA), and tannic acid from Enrichment method 10 (Enrichment #10) at 50 mg/kg were used in this study.
The open field task is a common measurement of novelty induced exploratory behavior and general activity in both mice and rats. In this study, the mice were placed in a PLEXIGLAS® cage (37.5 cm×21.5 cm×18 cm) under 50-65 lux light intensity. Their spontaneous locomotor activities were measured for 30 minutes using the SMART video tracking system (Panlab, Harvard Apparatus). The travel distance of each mouse was measured as an index of locomotion activity.

In assay [6] the test system is MK-801 treated mice. Put plainly: Prepulse inhibition in MK-801 treated mice (Examples 3, 4). The class given is in vivo, C57BL/6J male mice. The conditions noted are these: MK-801 0.2 mg/kg i.p. alone. On the procedure:
as §1
Prepulse inhibition was used as an index of sensorimotor gating function using SR-LAB startle apparatus (San Diego Instruments, San Diego, Calif., USA). Under 72 dB background noise, each session was composed of 5 minutes accumulation period followed by 64 trials in four blocks. The pulse alone (PA) trial was a 40 ms, 120 dB white noise burst. In the prepulse (pp)+pulse trials, a 20 ms white noise prepulse stimuli of 78 dB (pp6), 82 dB (pp10), and 90 dB (pp18) were presented 100 ms before a 40 ms 120 dB pulse. The non-stimulus (NS) trials presented the background noise only. The initial and the last blocks were composed of six PA trials, respectively. Two middle blocks consisted of PA, pp+pulse, and NS trials. […] The percentage of prepulse inhibition was evaluated by the following formula: % PPI=100×[(PA score)−(pp−P score)]/(PA score), where the PA score was the average of the PA value in the middle blocks. […]

The source of these data is patent US10105378B2, “Enrichment methods for preparing tannic acid compositions” (SyneuRx International (Taiwan) Corp., priority 2016, dated 2018).

Structures are written as SMILES.

A word on the IC50: it is the point on the concentration scale where inhibition reaches its midpoint.

`O=C(OC[C@H]1OC(OC(=O)c2cc(O)c(O)c(OC(=O)c3cc(O)c(O)c(O)c3)c2)[C@H](OC(=O)c2cc(O)c(O)c(OC(=O)c3cc(O)c(O)c(O)c3)c2)[C@@H](OC(=O)c2cc(O)c(O)c(OC(=O)c3cc(O)c(O)c(O)c3)c2)[C@@H]1OC(=O)c1cc(O)c(O)c(OC(=O)c2cc(O)c(O)c(O)c2)c1)c1cc(O)c(O)c(OC(=O)c2cc(O)c(O)c(O)c2)c1` (some centres unmarked) [10G]: the IC50 in assay [1] (read-out: IC50 (μM), potency of individual tannic acids, Table 4) is 0.215 µM. The “Relative DAAO activity (%)” value in assay [1] (samples at 300 nM) came to 19.25%.
`C[C@]12N[C@H](Cc3ccccc31)c1ccccc12` [MK-801]: the “prepulse inhibition vs control group” value in the assay with MK-801 treated mice [2] was “induced robust prepulse inhibition deficits in all prepulse intensities”; with MK-801 treated mice [6] it was “induced robust prepulse inhibition deficits”. The “locomotion activity vs control group” value in the assay on MK-801 treated mice [3] (Example 3) and in the assay with MK-801 treated mice [5] was “hyper-locomotion activity” throughout. For the same compound, in the assay with MK-801 treated mice [3] (Example 4), the locomotion result is listed as “induced hyper-locomotion”. In the assay on MK-801 treated mice [4], the “preference toward the sucrose solution (2%)” value is given as “did not show the preference toward the sucrose solution”.
